Test results reported in ChEMBL document CHEMBL5053515, “Insights into Ergochromes of the Plant Pathogen Claviceps purpurea” (J Nat Prod, 2021).
Activity calls are given as the source filed them. The rule behind the calls is not given here.

Experiments:
[1] = biological target: DNA topoisomerase 2-alpha (Homo sapiens) (UniProt P11388); assay: Inhibition of human topoisomerase 2a assessed as reduction in decatenation of kinetoplast DNA at 25 uM using kinetoplast DNA as substrate incubated for 2 hrs by ethidium bromide staining based agarose gel electrophoresis method relative to control
Chain of DNA topoisomerase 2-alpha (Homo sapiens) (P11388 whole entry): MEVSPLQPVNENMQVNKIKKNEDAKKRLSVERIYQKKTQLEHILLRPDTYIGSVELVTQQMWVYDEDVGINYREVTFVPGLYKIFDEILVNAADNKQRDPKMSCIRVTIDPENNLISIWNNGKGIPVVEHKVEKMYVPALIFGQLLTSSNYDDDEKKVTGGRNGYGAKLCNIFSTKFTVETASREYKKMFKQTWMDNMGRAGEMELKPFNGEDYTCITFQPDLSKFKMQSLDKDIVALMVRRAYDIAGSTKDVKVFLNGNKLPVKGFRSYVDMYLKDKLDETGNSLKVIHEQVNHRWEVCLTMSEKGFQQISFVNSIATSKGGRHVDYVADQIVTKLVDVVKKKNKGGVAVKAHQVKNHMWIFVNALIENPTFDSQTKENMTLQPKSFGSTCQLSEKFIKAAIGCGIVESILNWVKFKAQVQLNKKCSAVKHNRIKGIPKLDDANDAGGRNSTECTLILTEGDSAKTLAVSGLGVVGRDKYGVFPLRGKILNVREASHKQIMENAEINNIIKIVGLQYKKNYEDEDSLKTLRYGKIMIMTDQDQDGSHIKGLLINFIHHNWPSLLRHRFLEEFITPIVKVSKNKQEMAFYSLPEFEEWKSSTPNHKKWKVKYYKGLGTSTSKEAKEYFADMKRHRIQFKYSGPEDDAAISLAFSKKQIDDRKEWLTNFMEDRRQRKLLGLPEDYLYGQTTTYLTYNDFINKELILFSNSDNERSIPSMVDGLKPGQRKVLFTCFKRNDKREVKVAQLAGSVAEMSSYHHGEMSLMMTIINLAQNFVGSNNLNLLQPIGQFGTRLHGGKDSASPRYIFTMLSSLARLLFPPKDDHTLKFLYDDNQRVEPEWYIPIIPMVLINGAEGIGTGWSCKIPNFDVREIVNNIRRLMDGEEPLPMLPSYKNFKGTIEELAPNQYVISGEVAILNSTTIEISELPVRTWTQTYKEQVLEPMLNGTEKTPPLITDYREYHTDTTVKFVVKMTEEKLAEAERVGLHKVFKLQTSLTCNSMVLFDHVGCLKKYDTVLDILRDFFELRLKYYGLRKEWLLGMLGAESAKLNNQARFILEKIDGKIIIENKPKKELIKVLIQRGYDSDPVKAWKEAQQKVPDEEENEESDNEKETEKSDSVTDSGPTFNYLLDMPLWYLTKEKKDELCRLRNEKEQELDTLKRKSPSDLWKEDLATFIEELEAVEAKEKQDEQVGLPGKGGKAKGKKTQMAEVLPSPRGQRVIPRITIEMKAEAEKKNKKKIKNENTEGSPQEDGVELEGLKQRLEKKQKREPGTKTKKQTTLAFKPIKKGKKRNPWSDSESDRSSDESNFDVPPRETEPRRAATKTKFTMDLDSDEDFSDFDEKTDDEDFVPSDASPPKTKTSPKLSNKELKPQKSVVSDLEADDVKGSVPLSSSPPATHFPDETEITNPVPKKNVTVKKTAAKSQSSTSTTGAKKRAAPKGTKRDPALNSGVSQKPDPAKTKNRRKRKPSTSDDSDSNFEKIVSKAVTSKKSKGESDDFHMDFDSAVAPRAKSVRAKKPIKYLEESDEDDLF

[2] = system: CCF-STTG1; assay: Cytotoxicity against human CCF-STTG1 cells assessed as reduction in cell viability measured at 48 hrs by resazurin reagent based assay; type: functional; details: CCF-STTG1, 48 h
[3] = biological target: T1, DNA topoisomerase 1 (Homo sapiens) (UniProt P11387); assay: Inhibition of topoisomerase 1 (unknown origin) assessed as relaxation of supercoiled plasmid pUC18 DNA at 100 uM measured after 30 mins by ethidium bromide staining based agarose gel electrophoresis relative to control
T1 sequence (whole entry): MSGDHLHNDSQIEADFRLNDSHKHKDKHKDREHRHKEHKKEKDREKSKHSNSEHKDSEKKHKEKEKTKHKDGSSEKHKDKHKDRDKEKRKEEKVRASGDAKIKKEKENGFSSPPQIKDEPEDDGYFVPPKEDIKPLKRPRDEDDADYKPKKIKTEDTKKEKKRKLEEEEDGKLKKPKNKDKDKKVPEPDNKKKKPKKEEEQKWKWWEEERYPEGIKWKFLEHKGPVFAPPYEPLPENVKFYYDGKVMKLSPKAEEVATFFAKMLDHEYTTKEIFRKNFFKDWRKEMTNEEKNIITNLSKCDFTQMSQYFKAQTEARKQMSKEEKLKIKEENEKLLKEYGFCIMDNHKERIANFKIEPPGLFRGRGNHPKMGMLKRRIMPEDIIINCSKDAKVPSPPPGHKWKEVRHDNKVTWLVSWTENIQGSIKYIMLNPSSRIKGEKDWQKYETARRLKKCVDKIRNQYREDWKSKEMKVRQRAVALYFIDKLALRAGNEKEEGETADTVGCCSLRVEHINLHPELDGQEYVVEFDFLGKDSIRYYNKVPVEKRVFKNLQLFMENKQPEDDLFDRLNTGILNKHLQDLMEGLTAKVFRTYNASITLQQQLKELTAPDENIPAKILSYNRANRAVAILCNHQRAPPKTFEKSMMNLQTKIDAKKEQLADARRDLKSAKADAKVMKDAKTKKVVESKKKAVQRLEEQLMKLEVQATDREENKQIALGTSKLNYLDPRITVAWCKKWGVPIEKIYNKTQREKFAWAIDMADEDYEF

[4] = biological target: T1, DNA topoisomerase 1 (Homo sapiens); assay: Inhibition of topoisomerase 1 (unknown origin) assessed as relaxation of supercoiled plasmid pUC18 measured after 30 mins by ethidium bromide staining based agarose gel electrophoresis
[5] = system: HepG2; assay: Cytotoxicity against human HepG2 cells assessed as reduction in cell viability measured at 48 hrs by resazurin reagent based assay; type: functional; details: HepG2, 48 h
[6] = system: HepG2; assay: Cytotoxicity against human HepG2 cells assessed as reduction in cell viability at up to 100 uM measured at 48 hrs by resazurin reagent based assay; type: functional
[7] = system: HepG2; assay: Cytotoxicity against human HepG2 cells assessed as reduction in cell viability at 100 uM measured at 48 hrs by resazurin reagent based assay relative to control; type: functional

Row | SMILES | inhibition [1] | IC50 [2] [nM] | inhibition [3] [%] | inhibition [4] | IC50 [5] [nM] | Activity [6] | Activity [7] [%]
1 | COC(=O)[C@]12Oc3ccc(-c4ccc5c(c4O)C(=O)C4=C(O)C[C@@H](C)[C@H](O)[C@@]4(C(=O)OC)O5)c(O)c3C(=O)C1=C(O)C[C@@H](C)[C@@H]2O [SECALONIC ACID A] | 100% | 1000 | 100 | Dose-dependent effect | 900 |  | 
2 | COC(=O)[C@]12Oc3ccc(-c4ccc5c(c4O)C(=O)C4(O)C(=O)C[C@@H](C)[C@H](O)[C@@]4(C(=O)OC)O5)c(O)c3C(=O)C1(O)C(=O)C[C@@H](C)[C@@H]2O (stereo partly specified) |  | 13400 |  |  | 53600 |  | 
3 | COC(=O)[C@]12Oc3c(-c4ccc(O)c5c4O[C@@]4(C(=O)OC)C(=C(O)C[C@@H](C)[C@@H]4O)C5=O)ccc(O)c3C(=O)C1=C(O)C[C@@H](C)[C@@H]2O |  | 1000 |  |  | 900 |  | 
4 | Cc1cc2c(c(O)c1C(=O)O)C(=O)c1c(O)cc(O)c(O)c1C2=O |  |  |  |  |  | inactive | 
5 | COC(=O)[C@@]1(C(O)C(C)CC(=O)O)CC(=O)c2c(ccc(-c3ccc4c(c3O)C(=O)C3(O)C(O)C[C@@H](C)[C@H](O)[C@@]3(C(=O)O)O4)c2O)O1 (stereo partly specified) | inactive | 7500 |  | inactive |  |  | 
6 | COC(=O)[C@]12Oc3ccc(-c4ccc(O)c5c4O[C@@]4(C(=O)OC)C(=C(O)C[C@@H](C)[C@@H]4O)C5=O)c(O)c3C(=O)C1=C(O)C[C@@H](C)[C@@H]2O |  | 1000 |  |  | 900 |  | 
7 | Cc1cc2c(c(O)c1C(=O)O)C(=O)c1c(O)cc(O)cc1C2=O |  |  |  |  |  | inactive | 
8 | C[C@@H]1C[C@@]2(O)OC(=O)[C@@]3(Oc4ccc(-c5ccc6c(c5O)C(=O)C5(O)[C@@]7(O)C[C@@H](C)[C@H](O)[C@]5(O6)C(=O)O7)c(O)c4C(=O)C23O)[C@H]1O (stereo partly specified) | inactive | 2300 |  | inactive | 59900 |  | 3
